Source: patent US5512431A, “Methods of screening for nucleoside analogs that are incorporated by HIV reverse transcriptase and cause incorrect base pairing” (priority 1994, dated 1996)

Columns and labels:
lacZ gene = experiment: Forward mutation assay in lacZ of gapped M13mp2 DNA (reduced α-complementation) after transfection into E. coli; assay type: cell-based; settings: for Transfection efficiency, plaques per ng: Table I, gap filled by pol-I1f; for Transfection efficiency, plaques per ng / Transfection efficiency (yield of transfectants) / Mutation frequency: with HIV-RT; for Mutation frequency: number of mutants in parentheses in Table I
From the text: The column fractions are used in place of dCTP for DNA synthesis reactions. The DNA template is a double-stranded M13mp2 molecule with a 361-nt single-stranded gap spanning part of the lacZ gene for bacterial β-galactosidase. The uracil-containing strand is rapidly hydrolyzed upon transfection in E. coli, resulting in a 10^4 -fold preferential expression of the strand lacking uracil and preventing the repair of altered cytidines incorporated into the strand lacking uracil. DNA synthesis is catalyzed by HIV RT in the presence of 200 μM dATP, dGTP and TTP and 1 μM of each fraction from the reverse-phase column. Partially double-stranded DNA products are purified, and gap filling synthesis is completed using the Klenow fragment of E. coli DNA polymerase I. Incorporation of oxidized cytosine derivatives is quantified by scintillation counting and the toxicity of the fractions is assessed by comparing the transfection efficiency of DNA synthesized by using fractions containing the altered nucleotides to that of DNA synthesized with dCTP passed through the same column. The mutagenicity of each fraction is measured by scoring forward mutations in the lacZ gene for β-galactosidase (Kunkel, Proc. Natl. Acad Sci. USA 81:1494-1498, 1984).
Mutations produced by the incorporation of oxidized derivatives of dCTP into gapped DNA are identified by reduced α-complementation of β-galactosidase activity. Logarithmic-phase MC1061 hsdR, mcrR, araD, (139.increment.^- araABC^- leu) 7679.increment.lacX74, galU, galK, rspL, thi^- ! is prepared for electroporation by washing the cells four times with sterile H2 O. Cells are then pelleted and resuspended in a volume of H2 O equal to that of the packed cells. Fifty nanograms of the filled-gap DNA product is mixed with 300 μl of cells and subjected to electroporation using a Bio-Rad Gene Pulser ([…], 400 W, 2.0 KV, and time constants between 6.0 and 7.5). Samples are placed on ice and mixed with 1 ml of LB medium. Aliquots (10-40 μl) of the transfection mixtures are added to 3 ml of molten top agar (42° C.) consisting of 0.9% NaCl, 0.8% Bacto Agar, 0.08% 5-bromo-4-chloro-3-indolylβ-D-galactoside dissolved in dimethlyformamide, and 0.2 ml of CSH50 .increment.(proBlac)/F'+raD36, thi^-, ara^-, proAB, lacI^α Z^- .increment.m15! cells in logarithmic phase, and layered onto plates containing 30 ml of solidified M9 medium supplemented with 1.5% Bacto Agar and 15 mM isopropyl-β-D-thiogalactoside (IPTG). Phenotypes are confirmed by mixing mutant phage with an equal quantity of wild type M13mp2 phage and replating. Phage DNA is isolated (Kunkel, Proc. Natl. Sci. USA 81:1494-1498, 1984) and sequenced by the method of Sanger etal. (J. Mol. Biol. 125:225-246, 1978) using a 15-mer oligodeoxyribonucleotide primer complementary to the +179 to +194 segment of the lacZα coding sequence.
Mutagenic potential of γ is assessed by using a forward mutation assay. To reduce the frequency of mutations arising from the incorporation of noncomplementary nucleotides by HIV-RT, this incubation is performed for only 2 min. Under these conditions, HIV-RT incorporates approximately five molecules of γ or nine molecules of undamaged dCTP per molecule of template. The gapped DNA is then completely filled by pol-I1f (the large fragment of E. coli DNA polymerase I) using the four undamaged nucleotides as substrates. The transfection efficiencies and mutation frequencies are given in Table I. In reactions without HIV-RT, 1040 transfectants are obtained per ng DNA, whereas with HIV-RT and undamaged dCTP ("purified" by reverse-phase and strong-anion exchange chromatography) the yield is 165 transfectants per ng of DNA. Substitution of γ for dCTP further reduced transfection efficiency, 73 transfectants per ng of DNA. In the absence of HIV-RT the mutation frequency is 4.6×10^-4 (line 1, Table I). […]

HIV-RT = target: T1, HIV-RT (HIV-1 M:B_HXB2R, UniProt P04585); experiment: Incorporation of oxidized dCTP derivatives into gapped M13mp2 DNA by HIV-RT; assay type: biochemical; settings: for Molecules incorporated by HIV-RT per molecule of template: 2 min incubation
T1 construct: mature RT cut from Gag-Pol polyprotein (Pr160Gag-Pol)
Method: The purification of oxidized derivatives of dCTP is monitored by measuring incorporation into gapped DNA. The gapped DNA consists of a single-stranded circular M13mp2 DNA containing uracil residues annealed to a linear incomplete complementary strand lacking uracil so as to create a 361-nt gap spanning part of the lacZ gene (prepared as described in Feig and Loeb, Biochemistry 32:4466-73, 1993). The reaction mixture (0.02 ml) contains: 200 ng of gapped DNA, 60 mM Tris-HCl (pH 8.0), 10 mM KCl, 7 mM MgCl2, 1 mM dithiothreitol, 0.5 mM EDTA, 200 μM (each) dATP, dGTP and TTP, 1 μM α-^32 P!dCTP or modified dCTP (692 cpm/pmol), and 1.25 units of recombinant HIV-RT (Preston et al., Science 242:1168-1171, 1988) (1 unit is the amount of enzyme required to catalyze the incorporation of 1 nmol of dNTP into DNA in 1 h at 37° C.). The nucleotide bias in this reaction drives the incorporation of modified cytosine only at sites opposite guanosines in the lacZα gene. Samples are extracted once each with phenol and chloroform/isoamyl alcohol, 24:1, followed by ethanol precipitation in the presence of 400 mM NaCl and 10 μg of glycogen (as a coprecipitant). […]
The column fractions are used in place of dCTP for DNA synthesis reactions. […] Partially double-stranded DNA products are purified, and gap filling synthesis is completed using the Klenow fragment of E. coli DNA polymerase I. Incorporation of oxidized cytosine derivatives is quantified by scintillation counting and the toxicity of the fractions is assessed by comparing the transfection efficiency of DNA synthesized by using fractions containing the altered nucleotides to that of DNA synthesized with dCTP passed through the same column. The mutagenicity of each fraction is measured by scoring forward mutations in the lacZ gene for β-galactosidase (Kunkel, Proc. Natl. Acad Sci. USA 81:1494-1498, 1984).

[1] = tested on: mammalian DNA polymerase-β; experiment: Incorporation by mammalian DNA polymerase-β; assay type: biochemical
Method: (§1) Five different mammalian DNA polymerases have been identified, purified and characterized. These are designated as DNA polymerases α, β, γ, δ, ε based on their amino acid sequences, intracellular localization and presumed role in cellular DNA metabolism (Fry and Loeb, CRC Press, 1986). The ability of a human DNA polymerase to incorporate a deoxynucleoside triphosphates analogs is determined using a DNA template that corresponds to the sequence of the RNA template used to analyze incorporation by HIV RT. A direct comparison is made on the incorporation of nucleoside analogs in the triphosphate form using a human DNA polymerase with that of HIV RT.

[2] = tested on: mammalian DNA polymerase-α; experiment: Incorporation by mammalian DNA polymerase-α; assay type: biochemical
Method: as §1

## Nc1ccn([C@H]2C[C@H](O)[C@@H](COP(=O)(O)OP(=O)(O)OP(=O)(O)O)O2)c(=O)n1 [dCTP, reference compound]
lacZ gene
  Transfection efficiency, plaques per ng: 165 plaques per ng
  Transfection efficiency (yield of transfectants): 165 transfectants per ng of DNA
  Mutation frequency: 11 × 10^-4
lacZ gene; versus absence of HIV-RT
  Increase of mutation frequency by reaction with HIV-RT and dCTP: 2.4 fold
HIV-RT
  Molecules incorporated by HIV-RT per molecule of template: nine

## Nc1nc(=O)n([C@H]2C[C@H](O)[C@@H](COP(=O)(O)OP(=O)(O)OP(=O)(O)O)O2)cc1O [γ, 5-hydroxy-2'-deoxycytidine 5'-triphosphate]
[1]
  Incorporation by mammalian DNA polymerase-β relative to dCTP: 18%
lacZ gene; 173 mutations, 92 mutants sequenced
  Mutations that were C→T transitions: 95.6%
lacZ gene; 178 of 181 substitutions, 92 mutants sequenced
  Observed substitutions that occur at cytosines: 98.3%
lacZ gene
  Transfection efficiency, plaques per ng: 73 plaques per ng
  Transfection efficiency (yield of transfectants): 73 transfectants per ng of DNA
  Mutation frequency: 1200×10^-4
lacZ gene; average of five molecules of γ per template DNA, versus reaction with dCTP
  Increase of mutation frequency: 109 fold
HIV-RT
  Molecules incorporated by HIV-RT per molecule of template: approximately five
HIV-RT; relative to dCTP, gapped DNA
  Efficiency of incorporation into DNA by HIV-RT, % of that for dCTP: about 56%
[2]
  Incorporation by mammalian DNA polymerase-α: Neither species is incorporated appreciably
